We go through seven molecules from ChEMBL document CHEMBL4414547, “Discovery of a novel 2,5-dihydroxycinnamic acid-based 5-lipoxygenase inhibitor that induces apoptosis and may impair autophagic flux in RCC4 renal cancer cells” (Eur J Med Chem, 2019).

SMILES strings stand for the structures. Calls of active or inactive are those of the source. The calls are words filed in the database; no cut-off is given here.

For assay [1], the target named is T1, Polyunsaturated fatty acid 5-lipoxygenase (Homo sapiens) (UniProt P09917).
T1 sequence (whole entry): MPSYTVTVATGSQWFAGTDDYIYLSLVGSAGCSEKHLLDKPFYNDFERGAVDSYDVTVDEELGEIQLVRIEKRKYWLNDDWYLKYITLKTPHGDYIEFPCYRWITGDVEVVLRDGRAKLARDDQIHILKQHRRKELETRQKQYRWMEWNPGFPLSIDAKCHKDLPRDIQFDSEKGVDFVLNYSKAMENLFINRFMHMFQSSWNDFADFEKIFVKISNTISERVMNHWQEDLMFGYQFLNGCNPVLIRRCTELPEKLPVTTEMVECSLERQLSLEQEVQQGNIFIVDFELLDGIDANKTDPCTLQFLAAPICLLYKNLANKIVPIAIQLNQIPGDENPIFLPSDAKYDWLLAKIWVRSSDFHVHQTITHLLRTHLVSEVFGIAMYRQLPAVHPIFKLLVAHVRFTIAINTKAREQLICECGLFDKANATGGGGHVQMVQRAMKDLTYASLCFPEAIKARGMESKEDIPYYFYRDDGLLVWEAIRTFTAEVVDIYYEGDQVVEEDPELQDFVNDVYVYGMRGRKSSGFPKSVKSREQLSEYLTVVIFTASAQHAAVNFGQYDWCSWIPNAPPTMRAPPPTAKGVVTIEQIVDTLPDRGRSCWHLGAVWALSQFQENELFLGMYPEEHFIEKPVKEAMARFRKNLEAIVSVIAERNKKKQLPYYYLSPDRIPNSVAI
Description: Inhibition of human 5-LO transfected in HEK293 cells coexpressing FLAP assessed as reduction in leukotriene formation at 1 uM using arachidonic acid as substrate preincubated for 5 mins followed by calcium ionophore A23187/arachidonic acid addition and measured after 15 mins by RP-HPLC analysis. The class given is cell-based.

For assay [2], the system named is 786-0. The experiment in a line: Cytotoxicity against VHL-positive human 786-0 cells assessed as reduction in cell viability incubated for 4 days by XTT assay. The following applies: 786-0, 96 h. The class given is functional, cell-based. (Tetrazolium dyes change colour on reduction, which living cells bring about.)
The nature of assay [3]: Antioxidant activity assessed as DPPH radical scavenging activity incubated for 30 mins under dark condition. The class given is functional. In general terms: The DPPH test is a chemical assay of radical scavenging.
Assay [4] can be described thus: Cytotoxicity against VHL-deficient human RCC10 cells assessed as reduction in cell viability incubated for 4 days by XTT assay. It counts as functional, cell-based. The settings on record: 96 h.
Assay [5] relates to 786-0. Description: Cytotoxicity against VHL-deficient human 786-0 cells assessed as reduction in cell viability incubated for 4 days by XTT assay. The settings on record: 786-0, 96 h. The class given is functional, cell-based.
The nature of assay [6]: Cytotoxicity against VHL-positive human RCC10 cells assessed as reduction in cell viability incubated for 4 days by XTT assay. The settings on record: 96 h. It counts as functional, cell-based.
In assay [7] the test system is RCC4/VHL. The experiment in a line: Cytotoxicity against VHL-positive human RCC4/VHL cells assessed as reduction in cell viability incubated for 4 days by XTT assay. It counts as functional, cell-based. The settings on record: 96 h.
Assay [8] deals with RCC4. The experiment in a line: Cytotoxicity against VHL-deficient human RCC4 cells assessed as reduction in cell viability incubated for 4 days by XTT assay. The class given is functional, cell-based. The following applies: RCC4, 96 h.
Assay [9] concerns the target T2, Polyunsaturated fatty acid 5-lipoxygenase (Homo sapiens, UniProt P09917).
T2 sequence (P09917 whole entry): T1 sequence (whole entry)
The experiment in a line: Inhibition of 5-LO in human PMNL cells assessed as reduction in leukotriene formation preincubated for 5 mins followed by thapsigargin stimulation measured after 15 mins by RP-HPLC analysis. The class given is cell-based.

Assay [10] addresses T1, Polyunsaturated fatty acid 5-lipoxygenase (Homo sapiens). Description: Inhibition of 5-LO in human PMNL cells assessed as reduction in leukotriene formation at 1 uM preincubated for 5 mins followed by thapsigargin stimulation measured after 15 mins by RP-HPLC analysis relative to control. The class given is cell-based.
Assay [11] concerns DNA. The experiment in a line: Induction of DNA damage in human RCC4/VHL cells assessed as increase in p53 expression at 0.5 uM incubated for 24 hrs by Western blot analysis. It counts as cell-based. A general note: A western blot detects proteins with antibodies after separation by electrophoresis.
The test system of assay [12] is RCC4/VHL. The experiment in a line: Induction of apoptosis in human RCC4/VHL cells assessed as cleavage of pro-caspase 3 at 0.5 uM incubated for 24 hrs by Western blot analysis. The class given is functional, cell-based.
In assay [13] the test system is DNA. Description: Induction of DNA damage in VHL-deficient human RCC4 cells assessed as increase in p53 expression at 0.5 uM incubated for 24 hrs by Western blot analysis. The class given is cell-based.
Assay [14] deals with RCC4. Description: Induction of apoptosis in VHL-deficient human RCC4 cells assessed as cleavage of pro-caspase 3 at 0.5 uM incubated for 24 hrs by Western blot analysis. It counts as functional, cell-based.
Assay [15] in a line: Selectivity ratio of IC50 for VHL-positive human RCC4/VHL cells to IC50 for VHL-deficient human RCC4 cells. The class given is functional.
Assay [16] concerns the target T1, Polyunsaturated fatty acid 5-lipoxygenase (Homo sapiens). The experiment in a line: Inhibition of human 5-LO transfected in HEK293 cells coexpressing FLAP assessed as leukotriene formation at 1 uM using arachidonic acid as substrate preincubated for 5 mins followed by calcium ionophore A23187/arachidonic acid addition and measured after 15 mins by RP-HPLC analysis relative to control. It counts as cell-based. Details: scale not given: the % may be the effect or the level left.

Assay [17] shares this target. Description: Potency index, ratio of CAPE IC50 to compound IC50 for inhibition of 5-LO in human PMNL cells assessed as reduction in leukotriene formation preincubated for 5 mins followed by thapsigargin stimulation measured after 15 mins by RP-HPLC analysis. The class given is cell-based.
The target is the same in assay [18]. Description: Potency index, ratio of Zileuton IC50 to compound IC50 for inhibition of 5-LO in human PMNL cells assessed as reduction in leukotriene formation preincubated for 5 mins followed by thapsigargin stimulation measured after 15 mins by RP-HPLC analysis. It counts as cell-based.

As to `O=C(OCCc1ccccc1)c1cc(O)ccc1O`, in [1], the inhibition (in general, the drop in the measured response relative to a control, in per cent) was “inactive”. Moreover, the IC50 (usually the concentration at which inhibition is half-maximal) in the assay with 786-0 [2] is above 100 µM; in assay [3], 17.3 µM; in assay [4], 14.8 µM; in the assay on 786-0 [5], above 100 µM; in assay [6], 3.9 µM; in the assay with RCC4/VHL [7] it was above 100 µM. In addition, the IC50 in the assay on RCC4 [8] came to 42.8 µM.

Take `O=C(/C=C/c1cccc(O)c1O)OCCc1ccccc1`: the inhibition entry in assay [1] is “Active”. Also, the IC50 in assay [9] stood at 0.89 µM. In addition, in [10], the inhibition is above 50%.

Turning to `COc1cccc2c1C(=O)c1c(O)c3c(c(O)c1C2=O)C[C@@](O)(C(=O)CO)C[C@@H]3O[C@H]1C[C@H](N)[C@H](O)[C@H](C)O1`, the outcome in the assay on DNA [11] and in the assay on DNA [13] was Active. In addition, the outcome in the assay with RCC4/VHL [12] and in the assay with RCC4 [14] was inactive.

Consider `O=C(/C=C/c1ccc(O)cc1O)OCCCc1ccccc1`, for which the inhibition entry in assay [1] is “inactive”.

Regarding `O=C(/C=C/c1ccc(O)c(O)c1)OCCc1ccccc1` [CAFFEIC ACID PHENETHYL ESTER], the inhibition result in assay [1] and in assay [10] was “Active” each time. Moreover, the IC50 was 43.8 µM in the assay with 786-0 [2]; 18.2 µM in [3]; 19.8 µM in [4]; 26.8 µM in the assay on 786-0 [5]; 12.6 µM in assay [6]; 29.1 µM with RCC4/VHL [7]. Besides, the IC50 with RCC4 [8] turned out to be 14 µM. The “Ratio IC50” value in [15] is 2.1.

Regarding `O=C(/C=C/c1cc(O)cc(O)c1)OCCc1ccccc1`, in [16], the Activity came out at 100%.

Take `O=C(/C=C/c1cc(O)ccc1O)CCc1ccccc1`: in assay [1], the inhibition result was “Active”. Moreover, the IC50 was determined as 19 µM in the assay on 786-0 [2]; 15 µM in [3]; 0.53 µM in [9]; 9.2 µM in assay [4]; 20.5 µM with 786-0 [5]; 5.1 µM in [6]. For the same molecule, the IC50 in the assay with RCC4/VHL [7] turned out to be 12.3 µM; in the assay on RCC4 [8], 9.9 µM. For the same molecule, the inhibition in [10] was above 50%. Further, the Ratio IC50 in [17] amounted to 1.8; in [18] it was 4.
